Measured values from PMC9775191, “A Subset Screen of the Compounds Australia Scaffold Library Identifies 7-Acylaminodibenzoxazepinones as Potent and Selective Hits for Anti-Giardia Drug Discovery” (Biomedicines, 2022).
Like-named read-outs stand apart in the source and are kept apart here.

How the values were obtained:
[1] = tested on: G. duodenalis BRIS/91/HEPU/1279; experiment: Primary Giardia screen at 10 µM (live-cell imaging, automated counting); assay type: cell-based, Giardia duodenalis; conditions: for inhibition at 10 µM: Giardia duodenalis
How it was run: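 One concentration, 10 μM, is screened per compound in singlicate under microaerophilic gas (3% O2, 5% CO2, N2). Inhibition comes from automated image-based counts at 24 and 48 h, relative to 0.2% DMSO controls.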

[2] = tested on: G. duodenalis BRIS/91/HEPU/1279; experiment: Giardia dose response assay, assemblage B; assay type: cell-based, Giardia duodenalis; conditions: for IC50: Giardia duodenalis
Method: In these assays, compounds were serially diluted (8–12-point doubling dilutions in technical duplicate) in DMSO control media, with all test wells inoculated with parasites (1.5 × 10^4 parasites for BRIS/91/HEPU/1279 and BRIS/91/HEPU/1279m1, or 3 × 10^3 parasites for BRIS/87/HEPU/713). […] All plates were sealed in culture chambers and gassed with 3% O2, 5% CO2 in N2 and incubated at 37 °C for 48 h, with parasites imaged and enumerated at 24 and 48 h. Growth inhibition was calculated as a percentage relative to vehicle controls minus any background as described above and IC50 values were determined using log-linear interpolation as previously described. […] Statistical comparison of IC50 values when required were performed using Student’s t-test.

[3] = tested on: Neonatal foreskin fibroblast (NFF) cells; experiment: Mammalian cell cytotoxicity assay (sulforhodamine B); assay type: cell-based, human; conditions: for inhibition at 20 µM: ±SD; for SI (48h Gd): Table S2, NFF vs 48 h Giardia IC50
Method: The selectivity of compounds of interest was assessed against NFF cells. Assays were performed using sulforhodamine B and included media only, negative (no compound, no DMSO), and vehicle (DMSO) controls as previously described. A chloroquine control plate was included in each assay. […] Repurchased SN00797640 was tested in dose–response from 100 µM against NFF. Selectivity indices (SI) were calculated by dividing mammalian cell IC50 values by G. duodenalis BRIS/91/HEPU/1279 IC50 values.

[4] = tested on: Acinetobacter baumannii (ATCC 19606); experiment: Anti-bacterial activity assay; assay type: cell-based; conditions: ATCC19606, 50 µM
Method: (§1) The activity of compounds against methicillin resistant Staphylococcus aureus (ATCC 43300), Escherichia coli (ATCC 25922), Acinetobacter baumannii (ATCC 19606) and Klebsiella pneumoniae (ATCC 700603) was assessed at 50 µM in duplicate as previously described. In brief, mid-log phase bacteria cultures were added to 384-well microtiter plate wells containing compound to final cell density of 5 × 10^5 CFU/mL in 50 µL. Plates were then covered and incubated at 37 °C for 18 h without shaking. Inhibition of bacterial growth was determined by measuring absorbance at 600 nm (Tecan M1000 Pro monochromator plate reader) and calculating percentage growth inhibition relative to the negative media and bacteria without inhibitors. Vancomycin hydrochloride (Sigma-Aldrich an affiliate of Merck KGaA, Darmstadt, Germany, #861987) and colistin sulfate (Sigma-Aldrich an affiliate of Merck KGaA, Darmstadt, Germany, C4461) were on each plate as positive controls for Gram-positive (S. aureus) and Gram-negative (E. coli, A. baumannii and K. pneumoniae) bacteria, respectively.

[5] = tested on: Escherichia coli (ATCC 25922); experiment: Anti-bacterial activity assay; assay type: cell-based; conditions: for inhibition at 50 µM: Escherichia coli, ATCC25922, 50 µM, read-out: Bacterial Inhibition E. coli
Method: as §1

[6] = tested on: Klebsiella pneumoniae (ATCC 700603); experiment: Anti-bacterial activity assay; assay type: cell-based; conditions: ATCC700603, 50 µM, read-out: Bacterial Inhibition K. pneumoniae
Method: as §1

[7] = tested on: methicillin resistant Staphylococcus aureus (ATCC 43300); experiment: Anti-bacterial activity assay; assay type: cell-based; conditions: for inhibition at 50 µM: Staphylococcus aureus, ATCC43300, 50 µM, read-out: Bacterial Inhibition S. aureus
Method: as §1

[8] = 24 h, first singlicate assay, read-out: % Inhibition n=1 24h
[9] = 24 h, re-assessment, read-out: % Inhibition n=2 24h
[10] = 24 h, read-out: Average % Inhibition 24h
[11] = 48 h, first singlicate assay, read-out: % Inhibition n=1 48h
[12] = 48 h, re-assessment, read-out: % Inhibition n=2 48h
[13] = 48 h, read-out: Average % Inhibition 48h
[14] = 24 h, read-out: G. duodenalis IC50 24h, Table S2, 24 h, ±SD, max 10 µM
[15] = 48 h, Table S2, 48 h, ±SD, max 10 µM, read-out: G. duodenalis IC50 48h

IC50 [2, 14]	IC50 [2, 15]	SMILES	inhibition at 10 µM [1, 8]	inhibition at 10 µM [1, 9]	inhibition at 10 µM [1, 10]	inhibition at 10 µM [1, 11]	inhibition at 10 µM [1, 12]	inhibition at 10 µM [1, 13]	inhibition at 20 µM ([3]; Homo sapiens, NFF)	inhibition at 50 µM [4]	inhibition at 50 µM [5]	inhibition at 50 µM [6]	inhibition at 50 µM [7]	SI (48h Gd) [3]	further results
> 10 µM	> 10 µM	O=S1(=O)CCC(n2cc(-c3cnn(-c4ccccc4)c3)cn2)C1 (stereo not shown) [SN00776738, O=S1(=O)CCC(C1)n1ncc(c1)c1cnn(c1)c1ccccc1]	46.8%	44.3%	45.5%	52.3%	80.1%	66.2%	16 ± 0.6%	-4.28%	5.37%	6.87%	-13.4%	–	–
> 10 µM	6.39 ± 2.8 µM	CN(C)CCn1cc(C(=O)c2cc(Cl)ccc2O)cc1-c1nc2ccccc2c(=O)[nH]1 [SN00778038, CN(C)CCn1cc(cc1c1nc2ccccc2c(=O)[nH]1)C(=O)c1cc(Cl)ccc1O]	45.3%	44.7%	45%	85.2%	86.5%	85.8%	8.4 ± 4.7%	-8.73%	-2.44%	-1.96%	-9.58%	> 5	–
> 10 µM	5.48 µM	Cc1ncc([N+](=O)[O-])n1Cc1csc(Cc2ccccc2)n1 [SN00780011, O=N(=O)c1cnc(C)n1Cc1csc(Cc2ccccc2)n1]	33.3%	27%	30.1%	54.9%	79.2%	67.1%	9.2 ± 12.4%	10.5%	8.95%	16.4%	11.7%	> 3	–
6.87 ± 1.88 µM	1.86 ± 2.52 µM	O=[N+]([O-])c1cc(F)ccc1Sc1nnc(N2CCOCC2)s1 [SN00781107, Fc1ccc(Sc2nnc(s2)N2CCOCC2)c(c1)N(=O)=O]	34%	27.7%	30.8%	64.2%	57.4%	60.8%	-19.8 ± 44.9%	3.43%	2.28%	10.6%	4.13%	–	–
6.8 µM	6.51 µM	COc1c(C)cnc(Cn2cnc([N+](=O)[O-])c2)c1C [SN00782023, COc1c(C)cnc(Cn2cnc(c2)N(=O)=O)c1C]	40.2%	11.3%	25.8%	83.4%	82.5%	82.9%	-6.3 ± 3.6%	9.49%	5.99%	8.15%	10%	> 3	–
> 10 µM	> 10 µM	Cc1nn(-c2ccccc2)c2sc(C(=O)N3CCCCC3)cc12 [SN00783575, O=C(N1CCCCC1)c1cc2c(C)nn(c3ccccc3)c2s1]	34%	8.3%	21.1%	63.8%	15.4%	39.6%	26.9 ± 2.5%	15.1%	-4.12%	16.3%	6.02%	–	–
3.1 ± 2.29 µM	3.27 ± 4.08 µM	CC(=O)Nc1ccc([N+](=O)[O-])c2nonc12 [SN00783960, CC(=O)Nc1ccc(N(=O)=O)c2nonc12]	53.9%	36.2%	45.1%	66.5%	60.2%	63.3%	98.5 ± 3.8%	6.26%	12%	19.9%	95.3%	< 6	–
> 10 µM	4.58 ± 4.9 µM	COc1cccc(Nc2c3c(nc4ccccc24)CCC3)c1 [SN00784168, COc1cccc(c1)Nc1c2CCCc2nc2ccccc12]	27.7%	16.4%	22%	63.3%	61.4%	62.4%	75.1 ± 0.3%	-2.44%	3.98%	-3.07%	-10.7%	< 4	–
7.64 µM	7.68 µM	Nc1c(-c2nc(-c3ccccc3)cs2)c2ccccn2c1C(=O)c1ccc2c(c1)OCO2 [SN00785732, O=C(c1ccc2OCOc2c1)c1c(N)c(c2scc(n2)c2ccccc2)c2ccccn12]	64.4%	62%	63.2%	82.4%	83.8%	83.1%	41.6 ± 2.7%	9.69%	0.23%	9.49%	2.41%	> 2	–
0.24 ± 0.04 µM	–	CC1CCN(C(=O)c2oc3ccccc3c2NC(=O)c2ccc([N+](=O)[O-])o2)CC1 [SN00788467]	93.2%	82.3%	87.7%	93.9%	96.4%	95.2%	–	3.19%	3.73%	-1.21%	99.1%	> 166	Average % Inhibition 48h ([1]; 48 h): > 90%; fold more potent than metronidazole ([2]; 48 h IC50): > 45 fold; IC50 ([2]; 48 h, BRIS/91/HEPU/1279, 48 h, mean ± SD, read-out: IC50 Giardia (48 h)): 0.06 µM; IC50 ([3]; Homo sapiens, NFF, mean ± SD, read-out: IC50 NFF): > 10 µM; Selectivity ([3]; NFF IC50 divided by G. duodenalis BRIS/91/HEPU/1279 IC50): >166; selectivity index over bacteria ([5]; E. coli, A. baumannii and K. pneumoniae / bacteria, Table S2): > 800; Bacterial Inhibition S. aureus ([7]; 50 µM): 99%

SMILES	IC50 [2, 14]	IC50 [2, 15]	inhibition at 10 µM [1, 8]	inhibition at 10 µM [1, 9]	inhibition at 10 µM [1, 10]	inhibition at 10 µM [1, 11]	inhibition at 10 µM [1, 12]	inhibition at 10 µM [1, 13]	inhibition at 20 µM ([3]; Homo sapiens, NFF)	inhibition at 50 µM [4]	inhibition at 50 µM [5]	inhibition at 50 µM [6]	inhibition at 50 µM [7]	SI (48h Gd) [3]	further results
Cc1ccc(-n2c(=O)c3c(cnn3C)n(CC(=O)Nc3ccccc3C)c2=O)cc1 [SN00784346, Cc1ccc(cc1)n1c(=O)n(CC(=O)Nc2ccccc2C)c2cnn(C)c2c1=O]	> 10 µM	7.66 µM	52%	55.8%	53.9%	77.6%	76.3%	76.9%	-1.1 ± 0.8%	0.24%	3.09%	-2.01%	5.68%	> 2	–
Cc1ccc(NC(=O)c2cc3c(Cl)ccc4c3n2CCO4)cc1 [SN00788144, Cc1ccc(cc1)NC(=O)c1cc2c(Cl)ccc3OCCn1c23]	> 10 µM	> 10 µM	41%	20.1%	30.5%	65.8%	32.9%	49.3%	31.4 ± 11.3%	20.8%	2.85%	13.5%	-2.91%	–	–
